Data: US20230183193A1, “4-DIFLUOROMETHYL BENZOYL AMIDES WITH HERBICIDAL ACTION” (BAYER CROPSCIENCE AKTIENGESELLSCHAFT, priority 2017, published 2023)

Legend:
Type in all cases: in vivo
ECHCG = assay: Post-emergence herbicidal action, ECHCG; conditions: 80 g/ha, Table C
Procedure, shortened: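 Weed and crop plants grown in sandy loam in the greenhouse, treated at the one-leaf stage 2–3 weeks after sowing. Damage scored visually after about 3 weeks vs untreated controls (0% = control, 100% = dead).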

Avena fatua [1] = assay: Post-emergence herbicidal action, AVEFA; conditions: 80 g/ha, Table C
Procedure, shortened: (§1)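 Greenhouse-grown weeds in sandy loam, treated at the one-leaf stage 2 to 3 weeks after sowing with WP or EC formulations sprayed as aqueous suspension/emulsion at 600 to […] water plus 0.2% wetting agent. Visual scoring after about 3 weeks versus untreated controls, 0% (like control) to 100% (plants dead).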

Stellaria media [2] = assay: Post-emergence herbicidal action, STEME; conditions: 80 g/ha, Table D
Procedure, shortened: as §1

Alopecurus myosuroides [3] = assay: Pre-emergence herbicidal action, ALOMY; conditions: dosage 320 g/ha, scored visually after 3 weeks vs untreated controls
Procedure, shortened: (§2)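 Percent herbicidal activity rated by eye 3 weeks after pre-emergence soil-surface application, compared with untreated pots. Seeds sat under sandy loam; sprays carried 0.2% wetting agent.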

Abutilon theophrasti [4] = assay: Pre-emergence herbicidal action, ABUTH; conditions: dosage 320 g/ha, scored visually after 3 weeks vs untreated controls
Procedure, shortened: as §2

Avena fatua [5] = assay: Pre-emergence herbicidal action, AVEFA; conditions: dosage 320 g/ha, scored visually after 3 weeks vs untreated controls
Procedure, shortened: as §2

Cyperus serotinus = assay: Pre-emergence herbicidal action, CYPES; conditions: dosage 320 g/ha, scored visually after 3 weeks vs untreated controls
Procedure, shortened: as §2

Amaranthus retroflexus [6] = assay: Pre-emergence herbicidal action, AMARE; conditions: dosage 320 g/ha, scored visually after 3 weeks vs untreated controls
Procedure, shortened: as §2

Setaria viridis [7] = assay: Pre-emergence herbicidal action, SETVI; conditions: dosage 320 g/ha, scored visually after 3 weeks vs untreated controls
Procedure, shortened: as §2

Abutilon theophrasti [8] = assay: Post-emergence herbicidal action, ABUTH; conditions: 80 g/ha, Table D
Procedure, shortened: as §1

Matricaria inodora = assay: Pre-emergence herbicidal action, MATIN; conditions: dosage 320 g/ha, scored visually after 3 weeks vs untreated controls
Procedure, shortened: as §2

Stellaria media [9] = assay: Pre-emergence herbicidal action, STEME; conditions: dosage 320 g/ha, scored visually after 3 weeks vs untreated controls
Procedure, shortened: as §2

Viola tricolor [10] = assay: Pre-emergence herbicidal action, VIOTR; conditions: dosage 320 g/ha, scored visually after 3 weeks vs untreated controls
Procedure, shortened: as §2

Alopecurus myosuroides [11] = assay: Post-emergence herbicidal action, ALOMY; conditions: 80 g/ha, Table C
Procedure, shortened: as §1

Viola tricolor [12] = assay: Post-emergence herbicidal action, VIOTR; conditions: 80 g/ha, Table D
Procedure, shortened: as §1

Setaria viridis [13] = assay: Post-emergence herbicidal action, SETVI; conditions: 80 g/ha, Table C
Procedure, shortened: as §1

Amaranthus retroflexus [14] = assay: Post-emergence herbicidal action, AMARE; conditions: 80 g/ha, Table D
Procedure, shortened: as §1

Pharbitis purpureum = assay: Post-emergence herbicidal action, PHBPU; conditions: 80 g/ha, Table D
Procedure, shortened: as §1

Compound | Herbicidal activity ECHCG (ECHCG) | herbicidal activity AVEFA (Avena fatua [1]) | Herbicidal activity STEME (Stellaria media [2]) | herbicidal activity ALOMY (Alopecurus myosuroides [3]) | herbicidal activity ABUTH (Abutilon theophrasti [4]) | herbicidal activity AVEFA (Avena fatua [5]) | herbicidal activity CYPES (Cyperus serotinus) | herbicidal activity AMARE (Amaranthus retroflexus [6]) | herbicidal activity SETVI (Setaria viridis [7]) | herbicidal activity ABUTH (Abutilon theophrasti [8]) | herbicidal activity MATIN (Matricaria inodora) | Herbicidal activity STEME (Stellaria media [9]) | herbicidal activity VIOTR (Viola tricolor [10]) | herbicidal activity ALOMY (Alopecurus myosuroides [11]) | herbicidal activity VIOTR (Viola tricolor [12]) | herbicidal activity SETVI (Setaria viridis [13]) | herbicidal activity AMARE (Amaranthus retroflexus [14]) | Herbicidal activity PHBPU (Pharbitis purpureum)
CC[S+]([O-])c1c(C(F)F)ccc(C(=O)Nc2nnnn2C)c1Br (stereo not drawn) [Example 1-65] | 100% | 100% | 100% | 100% | 100% | 100% | 90% | 100% | 100% | 100% | 100% | 100% | 100% | 100% | 100% | 100% | 100% | 100%
Cn1nnnc1NC(=O)c1ccc(C(F)F)c([S+](C)[O-])c1I (stereo not drawn) [Example 1-74] | 90% | 90% | 100% | 100% | 100% | 100% | 100% | 100% | 100% | 100% | 100% | 100% | 100% | 90% | 100% | 100% | 100% | 100%
CCn1nnnc1NC(=O)c1ccc(C(F)F)c(S(C)(=O)=O)c1C [Example 2-3] | 90% | 90% | 100% | 90% | 100% | 100% | 100% | 100% | 100% | 80% | 100% | 90% | 100% | 80% | 100% | 100% | 80% | 100%
CCn1nnnc1NC(=O)c1ccc(C(F)F)c([S+]([O-])CC)c1C (stereo not drawn) [Example 2-5] | 100% | 100% | 100% | 100% | 100% | 90% | 80% | 100% | 100% | 100% | 100% | 90% | 100% | 90% | 100% | 100% | 100% | 90%
CCn1nnnc1NC(=O)c1ccc(C(F)F)c(S(=O)(=O)CC)c1C [Example 2-6] | 90% | 100% | 100% | 100% | 100% | 100% | 100% | 100% | 100% | 100% | 100% | 100% | 100% | 80% | 100% | 90% | 90% | 100%
CCc1c(C(=O)Nc2nnnn2CC)ccc(C(F)F)c1SC [Example 2-13] | 90% | 90% | 100% | 100% | 100% | 100% | 100% | 100% | 100% | 100% | 100% | 100% | 100% | 80% | 100% | 100% | 100% | 100%
CCc1c(C(=O)Nc2nnnn2CC)ccc(C(F)F)c1S(C)(=O)=O [Example 2-15] | 90% | 100% | 100% | 100% | 100% | 100% | 100% | 100% | 100% | 100% | 100% | 100% | 100% | 80% | 100% | 100% | 100% | 80%
CCSc1c(C(F)F)ccc(C(=O)Nc2nnnn2CC)c1CC [Example 2-16] | 90% | 90% | 100% | 100% | 100% | 100% | 100% | 100% | 100% | 100% | 100% | 100% | 100% | 90% | 100% | 90% | 100% | 100%
